What was measured:
[1] = Effectiveness or lethality of biocide composition with substituted components (test not described)
V. fischeri = V. fischeri luminescence assay (killing); type: cell-based, Vibrio fischeri; conditions: for killing by biocide with varied alcohol: 1 mM NH3, 0.05 mM CTAB; for killing by biocide with varied detergent: 1 mM NH3, 0.5% EtOH; for decrease in luminescence: 2 mM; for effect of ethanol on V. fischeri luminescence: 1% ethanol alone
Description: V. fischeri was grown overnight until the culture reached log phase and were brightly luminescent. Since bacterial luminescence is an ATP driven event, light emission is directly related to the metabolism and energy charge state of the organism. […] Samples at given concentrations were added to V. fischeri in a 24 well plate. A small amount was placed in a 96 well plate, agitated, and the luminescence was read in a TECAN well plate reader. For all figures, the total time period that V. fischeri was exposed to each biocide or component was between five and fifteen minutes. […] The right side bars represent a final pH of 9. Low readings indicate killing. […] The purpose of this component is to fluidize the cell membrane to collapse the pH gradient.

[2] = 0.05 mM detergent, pH 9.0 (FIG. 6)

| Compound | effectiveness as component in the composition and method of the invention [1] | killing by biocide with varied alcohol (V. fischeri; 0.5% alcohol, pH 9.0 (FIG. 7)) | killing by biocide with varied alcohol (V. fischeri; alcohol raised to 1%, pH 9) | killing by biocide with varied detergent (V. fischeri; [2]) | killing by biocide with varied detergent (V. fischeri; detergent raised to 1 mM, pH 9) | other results |
| --- | --- | --- | --- | --- | --- | --- |
| butanol | effective | some degree of killing | kill effectively | – | – | – |
| CCCCCCCCCCCCCCCC[N+](C)(C)C.[Cl-] [CTAC, Cetyl trimetylammonium chloride] | – | – | – | some degree of killing | kill effectively | – |
| N [ammonia] | – | – | – | – | – | effect of ammonia on V. fischeri luminescence (V. fischeri; ammonia alone, 50 mM or lower, pH 7 or 9, versus pH adjusted H2O control (FIG. 3)): no difference from the control |
| CCCCCCCCCCCCCCCCN [HDA, Hexadecylamine] | – | – | – | – | – | decrease in luminescence (V. fischeri; pH 7.5): 11%; decrease in luminescence (V. fischeri; pH 9): 29%; effect of HDA on V. fischeri luminescence (V. fischeri; HDA alone 0-2 mM, pH 7.5 (FIG. 2)): little to no effect; effect of HDA on V. fischeri luminescence (V. fischeri; HDA alone, higher concentrations (up to 2 mM), pH 9 (FIG. 2)): slight effect |
| Nc1ccccc1 [aniline] | – | – | – | – | – | lethality of biocide with aniline substituted for HAD ([1]; aniline as second hydroxophore component): very lethal |
| CO [methanol] | effective | some degree of killing | kill effectively | – | – | – |
| CCCCCCCCCCCCCC[N+](C)(C)C.[Cl-] [TTAC, Tetradecyl trimethyl ammonium chloride] | – | – | – | some degree of killing | kill effectively | – |
| CCCO [propanol] | effective | some degree of killing | kill effectively | – | – | – |
| CCCCCCCCCCCCOS(=O)(=O)[O-].[Na+] [SDS, Sodium dodecyl sulfate] | – | – | – | some degree of killing | kill effectively | – |
| OCc1ccccc1 [benzyl alcohol] | effective | some degree of killing | kill effectively | – | – | – |
| CCO [ethanol] | – | some degree of killing | kill effectively | – | – | effect of ethanol on V. fischeri luminescence (V. fischeri; final pH 7, 5-15 min exposure (FIG. 1)): damage; effect of ethanol on V. fischeri luminescence (V. fischeri; final pH 9, 5-15 min exposure (FIG. 1)): damage; higher luminescence reading at pH 9 than same concentration at pH 7 (V. fischeri; 3% ethanol, pH 9 versus pH 7): 40% |
| CCCCCCCCCCCCCC[N+](C)(C)C.[Br-] [TTAB, Tetradecyl trimethyl ammonium bromide] | – | – | – | some degree of killing | kill effectively | – |
| CCCCCCCCCCCCCCCC[N+](C)(C)C.[Br-] [CTAB, Cetyl trimethylammonium bromide] | – | – | – | some degree of killing | kill effectively | – |
